From the NIST ThermoML archive (doi:10.1016/j.tca.2015.06.017)
Numbers after ± are expanded uncertainties.

Assay: xn = mol fraction of the nth substance listed
Conditions: Liquid, Vibrating tube method

CCCCCl [1-chlorobutane] + CCCCCCC
mass density [kg/m3]
Conditions | 283.15 K | 293.15 K
100 kPa, x2 = 0.0508 | 882.75 ± 0.24 | 871.93 ± 0.24
100 kPa, x2 = 0.0994 | 869.33 ± 0.24 | 858.68 ± 0.24
100 kPa, x2 = 0.2013 | 842.84 ± 0.24 | 832.5 ± 0.24
100 kPa, x2 = 0.3015 | 818.82 ± 0.24 | 808.71 ± 0.24
100 kPa, x2 = 0.4008 | 796.7 ± 0.24 | 786.9 ± 0.24
100 kPa, x2 = 0.5026 | 775.72 ± 0.24 | 766.2 ± 0.24
100 kPa, x2 = 0.6012 | 756.89 ± 0.24 | 747.61 ± 0.24
100 kPa, x2 = 0.7003 | 739.21 ± 0.25 | 730.17 ± 0.25
100 kPa, x2 = 0.7995 | 722.69 ± 0.25 | 713.87 ± 0.25
100 kPa, x2 = 0.9011 | 706.94 ± 0.25 | 698.34 ± 0.25
100 kPa, x2 = 0.9494 | 699.8 ± 0.25 | 691.32 ± 0.25
2000 kPa, x2 = 0.0508 | 884.62 ± 0.25 | 873.92 ± 0.25
2000 kPa, x2 = 0.0994 | 871.23 ± 0.25 | 860.68 ± 0.25
2000 kPa, x2 = 0.2013 | 844.73 ± 0.25 | 834.49 ± 0.25
2000 kPa, x2 = 0.3015 | 820.72 ± 0.25 | 810.76 ± 0.25
2000 kPa, x2 = 0.4008 | 798.63 ± 0.26 | 788.97 ± 0.26
2000 kPa, x2 = 0.5026 | 777.65 ± 0.26 | 768.2 ± 0.26
2000 kPa, x2 = 0.6012 | 758.81 ± 0.26 | 749.57 ± 0.26
2000 kPa, x2 = 0.7003 | 741.14 ± 0.26 | 732.18 ± 0.26
2000 kPa, x2 = 0.7995 | 724.62 ± 0.27 | 715.87 ± 0.27
2000 kPa, x2 = 0.9011 | 708.86 ± 0.27 | 700.31 ± 0.27
2000 kPa, x2 = 0.9494 | 701.72 ± 0.27 | 693.28 ± 0.27
5000 kPa, x2 = 0.0508 | 887.46 ± 0.26 | 876.95 ± 0.26
5000 kPa, x2 = 0.0994 | 874.03 ± 0.26 | 863.68 ± 0.26
5000 kPa, x2 = 0.2013 | 847.53 ± 0.27 | 837.52 ± 0.27
5000 kPa, x2 = 0.3015 | 823.49 ± 0.27 | 813.71 ± 0.27
5000 kPa, x2 = 0.4008 | 801.35 ± 0.28 | 791.93 ± 0.28
5000 kPa, x2 = 0.5026 | 780.38 ± 0.28 | 771.16 ± 0.28
5000 kPa, x2 = 0.6012 | 761.44 ± 0.29 | 752.54 ± 0.29
5000 kPa, x2 = 0.7003 | 743.76 ± 0.29 | 735.08 ± 0.29
5000 kPa, x2 = 0.7995 | 727.26 ± 0.3 | 718.74 ± 0.3
5000 kPa, x2 = 0.9011 | 711.45 ± 0.3 | 703.17 ± 0.3
5000 kPa, x2 = 0.9494 | 704.3 ± 0.3 | 696.13 ± 0.31
7000 kPa, x2 = 0.0508 | 889.28 ± 0.27 | 878.92 ± 0.27
7000 kPa, x2 = 0.0994 | 875.85 ± 0.27 | 865.65 ± 0.27
7000 kPa, x2 = 0.2013 | 849.37 ± 0.28 | 839.47 ± 0.28
7000 kPa, x2 = 0.3015 | 825.31 ± 0.29 | 815.63 ± 0.29
7000 kPa, x2 = 0.4008 | 803.16 ± 0.29 | 793.83 ± 0.3
7000 kPa, x2 = 0.5026 | 782.19 ± 0.3 | 773.03 ± 0.3
7000 kPa, x2 = 0.6012 | 763.28 ± 0.3 | 754.35 ± 0.31
7000 kPa, x2 = 0.7003 | 745.54 ± 0.31 | 736.9 ± 0.31
7000 kPa, x2 = 0.7995 | 729.04 ± 0.32 | 720.57 ± 0.32
7000 kPa, x2 = 0.9011 | 713.2 ± 0.32 | 704.95 ± 0.33
7000 kPa, x2 = 0.9494 | 706.05 ± 0.32 | 697.9 ± 0.33
10000 kPa, x2 = 0.0508 | 891.99 ± 0.28 | 881.85 ± 0.28
10000 kPa, x2 = 0.0994 | 878.55 ± 0.28 | 868.56 ± 0.29
10000 kPa, x2 = 0.2013 | 852.02 ± 0.29 | 842.33 ± 0.3
10000 kPa, x2 = 0.3015 | 827.93 ± 0.3 | 818.52 ± 0.31
10000 kPa, x2 = 0.4008 | 805.75 ± 0.31 | 796.66 ± 0.32
10000 kPa, x2 = 0.5026 | 784.72 ± 0.32 | 775.83 ± 0.33
10000 kPa, x2 = 0.6012 | 765.77 ± 0.33 | 757.17 ± 0.33
10000 kPa, x2 = 0.7003 | 748.04 ± 0.34 | 739.62 ± 0.34
10000 kPa, x2 = 0.7995 | 731.51 ± 0.35 | 723.28 ± 0.35
10000 kPa, x2 = 0.9011 | 715.65 ± 0.35 | 707.66 ± 0.36
10000 kPa, x2 = 0.9494 | 708.47 ± 0.36 | 700.58 ± 0.36
20000 kPa, x2 = 0.0508 | 900.53 ± 0.31 | 890.77 ± 0.32
20000 kPa, x2 = 0.0994 | 887.08 ± 0.32 | 877.47 ± 0.33
20000 kPa, x2 = 0.2013 | 860.48 ± 0.34 | 851.18 ± 0.35
20000 kPa, x2 = 0.3015 | 836.34 ± 0.36 | 827.25 ± 0.37
20000 kPa, x2 = 0.4008 | 814.1 ± 0.38 | 805.35 ± 0.39
20000 kPa, x2 = 0.5026 | 793.03 ± 0.4 | –
20000 kPa, x2 = 0.6012 | 773.97 ± 0.41 | –
20000 kPa, x2 = 0.7003 | 756.2 ± 0.43 | –
20000 kPa, x2 = 0.7995 | 739.54 ± 0.44 | –
20000 kPa, x2 = 0.9011 | 723.61 ± 0.46 | –
20000 kPa, x2 = 0.9494 | 716.4 ± 0.46 | –
30000 kPa, x2 = 0.0508 | 908.4 ± 0.34 | –
30000 kPa, x2 = 0.0994 | 894.89 ± 0.36 | –
30000 kPa, x2 = 0.2013 | 868.22 ± 0.39 | –
30000 kPa, x2 = 0.3015 | 843.95 ± 0.42 | –
30000 kPa, x2 = 0.4008 | 821.67 ± 0.44 | –
30000 kPa, x2 = 0.5026 | 800.5 ± 0.47 | –
30000 kPa, x2 = 0.6012 | 781.4 ± 0.49 | –
30000 kPa, x2 = 0.7003 | 763.51 ± 0.51 | –
30000 kPa, x2 = 0.7995 | 746.78 ± 0.53 | –
30000 kPa, x2 = 0.9011 | 730.75 ± 0.55 | –
30000 kPa, x2 = 0.9494 | 723.48 ± 0.56 | –
40000 kPa, x2 = 0.0508 | 915.72 ± 0.36 | –
40000 kPa, x2 = 0.0994 | 902.19 ± 0.39 | –
40000 kPa, x2 = 0.2013 | 875.41 ± 0.43 | –
40000 kPa, x2 = 0.3015 | 851.07 ± 0.47 | –
40000 kPa, x2 = 0.4008 | 828.73 ± 0.5 | –
40000 kPa, x2 = 0.5026 | 807.4 ± 0.53 | –
40000 kPa, x2 = 0.6012 | 788.26 ± 0.57 | –
40000 kPa, x2 = 0.7003 | 770.26 ± 0.59 | –
40000 kPa, x2 = 0.7995 | 753.48 ± 0.62 | –
40000 kPa, x2 = 0.9011 | 737.36 ± 0.65 | –
40000 kPa, x2 = 0.9494 | 730.05 ± 0.66 | –
50000 kPa, x2 = 0.0508 | 922.47 ± 0.38 | –
50000 kPa, x2 = 0.0994 | 908.9 ± 0.41 | –
50000 kPa, x2 = 0.2013 | 882.07 ± 0.46 | –
50000 kPa, x2 = 0.3015 | 857.66 ± 0.51 | –
50000 kPa, x2 = 0.4008 | 835.21 ± 0.55 | –
50000 kPa, x2 = 0.5026 | 813.85 ± 0.6 | –
50000 kPa, x2 = 0.6012 | 794.6 ± 0.63 | –
50000 kPa, x2 = 0.7003 | 776.55 ± 0.67 | –
50000 kPa, x2 = 0.7995 | 759.63 ± 0.7 | –
50000 kPa, x2 = 0.9011 | 743.44 ± 0.74 | –
50000 kPa, x2 = 0.9494 | 736.1 ± 0.75 | –
60000 kPa, x2 = 0.0508 | 928.92 ± 0.4 | –
60000 kPa, x2 = 0.0994 | 915.32 ± 0.43 | –
60000 kPa, x2 = 0.2013 | 888.42 ± 0.49 | –
60000 kPa, x2 = 0.3015 | 863.89 ± 0.55 | –
60000 kPa, x2 = 0.4008 | 841.39 ± 0.6 | –
60000 kPa, x2 = 0.5026 | 819.91 ± 0.65 | –
60000 kPa, x2 = 0.6012 | 800.58 ± 0.7 | –
60000 kPa, x2 = 0.7003 | 782.47 ± 0.74 | –
60000 kPa, x2 = 0.7995 | 765.51 ± 0.78 | –
60000 kPa, x2 = 0.9011 | 749.23 ± 0.82 | –
60000 kPa, x2 = 0.9494 | 741.85 ± 0.84 | –
65000 kPa, x2 = 0.0508 | 931.98 ± 0.4 | –
65000 kPa, x2 = 0.0994 | 918.36 ± 0.44 | –
65000 kPa, x2 = 0.2013 | 891.39 ± 0.51 | –
65000 kPa, x2 = 0.3015 | 866.87 ± 0.57 | –
65000 kPa, x2 = 0.4008 | 844.29 ± 0.63 | –
65000 kPa, x2 = 0.5026 | 822.81 ± 0.68 | –
65000 kPa, x2 = 0.6012 | 803.45 ± 0.73 | –
65000 kPa, x2 = 0.7003 | 785.25 ± 0.78 | –
65000 kPa, x2 = 0.7995 | 768.28 ± 0.82 | –
65000 kPa, x2 = 0.9011 | 751.95 ± 0.86 | –
65000 kPa, x2 = 0.9494 | 744.53 ± 0.88 | –
